In PubChem BioAssay (NCI):
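In this assay, cells in 96-well plates receive the compound at five concentrations for 48 hours. Endpoints are linearly interpolated between the surrounding concentrations. Abbreviation: GI50, concentration required for 50% inhibition of growth. TGI marks complete inhibition of growth.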

Tests used:
Experiment in all cases: NCI tumour cell line growth inhibition, 48 h
[1] = test system: 786-0 renal
[2] = test system: A498 renal
[3] = test system: A549 NSCLC
[4] = test system: ACHN renal
[5] = test system: BT-549 breast
[6] = test system: CAKI-1 renal
[7] = test system: CCRF-CEM leukemia
[8] = test system: COLO 205 colon
[9] = test system: DU-145 prostate
[10] = test system: EKVX NSCLC
[11] = test system: HCC-2998 colon
[12] = test system: HCT-116 colon
[13] = test system: HCT-15 colon
[14] = test system: HL-60(TB) leukemia
[15] = test system: HOP-62 NSCLC
[16] = test system: HOP-92 NSCLC
[17] = test system: HS 578T breast
[18] = test system: HT29 colon
[19] = test system: IGROV1 ovarian
[20] = test system: K-562 leukemia
[21] = test system: KM12 colon
[22] = test system: LOX IMVI melanoma
[23] = test system: M14 melanoma
[24] = test system: MALME-3M melanoma
[25] = test system: MCF7 breast
[26] = test system: MDA-MB-231 breast
[27] = test system: MDA-MB-435
[28] = test system: MDA-MB-468 breast
[29] = test system: MOLT-4 leukemia
[30] = test system: NCI-H226 lung
[31] = test system: NCI-H23 lung
[32] = test system: NCI-H460 lung
[33] = test system: NCI-H522 lung
[34] = test system: NCI/ADR-RES ovarian
[35] = test system: OVCAR-3 ovarian
[36] = test system: OVCAR-4 ovarian
[37] = test system: OVCAR-5 ovarian
[38] = test system: OVCAR-8 ovarian
[39] = test system: PC-3 prostate
[40] = test system: RPMI-8226 leukemia
[41] = test system: RXF 393 renal
[42] = test system: SF-268 CNS
[43] = test system: SF-295 CNS
[44] = test system: SF-539 CNS
[45] = test system: SK-MEL-2 melanoma
[46] = test system: SK-MEL-28 melanoma
[47] = test system: SK-MEL-5 melanoma
[48] = test system: SK-OV-3 ovarian
[49] = test system: SN12C renal
[50] = test system: SNB-19 CNS
[51] = test system: SNB-75 CNS
[52] = test system: SR leukemia
[53] = test system: SW-620 colon
[54] = test system: T-47D breast
[55] = test system: TK-10 renal
[56] = test system: U251 CNS
[57] = test system: UACC-257 melanoma
[58] = test system: UACC-62 melanoma
[59] = test system: UO-31 renal

## CC1(C)CC[C@]2(C(=O)N3CCOCC3)CC[C@]3(C)C(=CC[C@@H]4[C@@]5(C)CC[C@H](NCO)C(C)(C)[C@@H]5CC[C@]43C)[C@H]2C1
[1]
  GI50: 0.596 µM
  TGI: 1.31 µM
[2]
  GI50: 5.59 µM
  TGI: 10.9 µM
[3]
  GI50: 1.58 µM
  TGI: 7.01 µM
[4]
  GI50: 1.72 µM
  TGI: 6.11 µM
[5]
  GI50: 6.38 µM
  TGI: 12.9 µM
[6]
  GI50: 0.915 µM
  TGI: 2.98 µM
[7]
  GI50: 1.04 µM
  TGI: 3.23 µM
[8]
  GI50: 0.795 µM
  TGI: 1.99 µM
[9]
  GI50: 1.38 µM
  TGI: 5.01 µM
[10]
  GI50: 4.57 µM
  TGI: 10 µM
[11]
  GI50: 0.836 µM
  TGI: 2.31 µM
[12]
  GI50: 0.696 µM
  TGI: 1.58 µM
[13]
  GI50: 0.715 µM
  TGI: 1.76 µM
[14]
  GI50: 0.484 µM
  TGI: 1.22 µM
[15]
  GI50: 8.18 µM
  TGI: 18.6 µM
[16]
  GI50: 5.25 µM
  TGI: 11.3 µM
[17]
  GI50: 5.22 µM
  TGI: 12.5 µM
[18]
  GI50: 1.96 µM
  TGI: 18.6 µM
[19]
  GI50: 4.66 µM
  TGI: 9.78 µM
[20]
  GI50: 0.811 µM
  TGI: 33.8 µM
[21]
  GI50: 1.14 µM
  TGI: 4.26 µM
[22]
  GI50: 0.576 µM
  TGI: 1.06 µM
[23]
  GI50: 4.11 µM
  TGI: 9.71 µM
[24]
  GI50: 5.2 µM
  TGI: 9.97 µM
[25]
  GI50: 0.73 µM
  TGI: 2.06 µM
[26]
  GI50: 1.83 µM
  TGI: 5.89 µM
[27]
  GI50: 0.998 µM
  TGI: 5.1 µM
[28]
  GI50: 0.647 µM
  TGI: 1.4 µM
[29]
  GI50: 0.767 µM
  TGI: 2.68 µM
[30]
  GI50: 6.61 µM
  TGI: 13.6 µM
[31]
  GI50: 3.74 µM
  TGI: 8.72 µM
[32]
  GI50: 1.02 µM
  TGI: 3.29 µM
[33]
  GI50: 6.27 µM
  TGI: 13.8 µM
[34]
  GI50: 1.99 µM
  TGI: 7.09 µM
[35]
  GI50: 0.961 µM
  TGI: 3.43 µM
[36]
  GI50: 2.5 µM
  TGI: 7.62 µM
[37]
  GI50: 4.47 µM
  TGI: 9.1 µM
[38]
  GI50: 1.52 µM
  TGI: 6.3 µM
[39]
  GI50: 4.6 µM
  TGI: 10.6 µM
[40]
  GI50: 1.42 µM
  TGI: 7.17 µM
[41]
  GI50: 0.886 µM
  TGI: 2.69 µM
[42]
  GI50: 4.78 µM
  TGI: 10.4 µM
[43]
  GI50: 1.86 µM
  TGI: 6.7 µM
[44]
  GI50: 1.12 µM
  TGI: 4.29 µM
[45]
  GI50: 5.95 µM
  TGI: 11.4 µM
[46]
  GI50: 5.16 µM
  TGI: 9.94 µM
[47]
  GI50: 5.65 µM
  TGI: 11 µM
[48]
  GI50: 6.81 µM
  TGI: 13.3 µM
[49]
  GI50: 2.36 µM
  TGI: 6.94 µM
[50]
  GI50: 5.71 µM
  TGI: 11.3 µM
[51]
  GI50: 4.39 µM
  TGI: 9.51 µM
[52]
  GI50: 0.682 µM
  TGI: 2.14 µM
[53]
  GI50: 0.552 µM
  TGI: 1.06 µM
[54]
  GI50: 5.33 µM
  TGI: 15.6 µM
[55]
  GI50: 7.05 µM
  TGI: 13.5 µM
[56]
  GI50: 4.14 µM
  TGI: 9.49 µM
[57]
  GI50: 5.65 µM
  TGI: 10.7 µM
[58]
  GI50: 5.86 µM
  TGI: 10.7 µM
[59]
  GI50: 4.62 µM
  TGI: 9.34 µM
